System: formalin flinch response in rats
Conditions: rat, in vivo

Q: How did the “effect on Phase 1 response (in words)” value turn out when COc1ccc(CCN(C)CCCC(C#N)(c2ccc(OC)c(OC)c2)C(C)C)cc1OC (centres unmarked) [verapamil] was run?
A: Its value is “without effect”.

Q: And the “effect on Phase 2 response (in words)” value?
A: Its value is “without effect”.

Q: Which “effect on Phase 1 response (in words)” value does the source give for COC(=O)C1=C(C)NC(C)=C(C(=O)OC)C1c1ccccc1[N+](=O)[O-] [nifedipine] here?
A: The value was “without effect”.

Q: What about the “effect on Phase 2 response (in words)” value of the same compound?
A: The value was “without effect”.

Q: Which results are given for COc1ccc([C@@H]2Sc3ccccc3N(CCN(C)C)C(=O)[C@@H]2OC(C)=O)cc1 [diltiazem]?
A: effect on Phase 1 response (in words): without effect; effect on Phase 2 response (in words): without effect

Q: Which “effect on Phase 1 response (in words)” value does the source give for COCCOC(=O)C1=C(C)NC(C)=C(C(=O)OC(C)C)C1c1cccc([N+](=O)[O-])c1 (centres unmarked) [nimodipine] here?
A: Its value is “without effect”.

Q: What about the “effect on Phase 2 response (in words)” value of the same compound?
A: The value was “without effect”.

From patent US6054429A (priority 1996, dated 2000)
